What was measured:
Assay in all cases: Inhibitory test with giant colonies of Basidiomycetes
Format in all cases: cell-based
Conditions in all cases: 6 ppm active compound in agar medium, 26° C., compared to medium without active compound
[1] = system: Gloeophyllum trabeum (P1)
Procedure: (§1) Inhibitory test with giant colonies of Basidiomycetes
(§2) Mycelium pieces were punched out of colonies of Gloeophyllum trabeum (P1), Coniophora puteana (P2), Poria placenta (P3), Lentinus tigrinus (P4), Coriolus versicolor (P5) and Sterum sanguinolentum (P6) and incubated at 26° C. on an agar medium. The inhibition of the growth of the fungal threads on the active-compound-containing medium (concentration of active compound: 6 ppm) was compared to the longitudinal growth of medium without added active compound and rated in inhibition percent.

Coniophora puteana (P2) = system: Coniophora puteana (P2)
Procedure: as §1, §2

Coriolus versicolor (P5) = system: Coriolus versicolor (P5)
Procedure: as §1, §2

[2] = system: Sterum sanguinolentum (P6)
Procedure: as §1, §2

Lentinus tigrinus (P4) = system: Lentinus tigrinus (P4)
Procedure: as §1, §2

Poria placenta (P3) = system: Poria placenta (P3)
Procedure: as §1, §2

Fc1cccc(-c2c(Cl)nc3ncnn3c2NC2CCCC2)c1 [No 1]
80%: P1: inhibition of the growth of the fungal threads [1]
100%: P2: inhibition of the growth of the fungal threads (Coniophora puteana (P2))
91%: P5: inhibition of the growth of the fungal threads (Coriolus versicolor (P5))

Clc1ccccc1-c1c(Cl)nc2ncnn2c1NC1CCCC1 [No 2]
94%: P4: inhibition of the growth of the fungal threads (Lentinus tigrinus (P4))
100%: P1: inhibition of the growth of the fungal threads [1] | P2: inhibition of the growth of the fungal threads (Coniophora puteana (P2)) | P6: inhibition of the growth of the fungal threads [2] | P5: inhibition of the growth of the fungal threads (Coriolus versicolor (P5))

Fc1cccc(F)c1-c1c(Cl)nc2ncnn2c1NC1CCCC1 [No 3]
100%: P1: inhibition of the growth of the fungal threads [1] | P2: inhibition of the growth of the fungal threads (Coniophora puteana (P2)) | P6: inhibition of the growth of the fungal threads [2] | P4: inhibition of the growth of the fungal threads (Lentinus tigrinus (P4)) | P5: inhibition of the growth of the fungal threads (Coriolus versicolor (P5))

Fc1cc(F)c(-c2c(Cl)nc3ncnn3c2NC2CCCC2)c(F)c1 [No 4]
100%: P5: inhibition of the growth of the fungal threads (Coriolus versicolor (P5))

Clc1nc2ncnn2c(NC2CCCC2)c1-c1ccccc1 [No 5]
100%: P5: inhibition of the growth of the fungal threads (Coriolus versicolor (P5))

CC(C)Nc1c(-c2ccc(Cl)cc2Cl)c(Cl)nc2ncnn12 [No 6]
100%: P2: inhibition of the growth of the fungal threads (Coniophora puteana (P2)) | P6: inhibition of the growth of the fungal threads [2]
95%: P1: inhibition of the growth of the fungal threads [1] | P5: inhibition of the growth of the fungal threads (Coriolus versicolor (P5))

Fc1ccccc1-c1c(Cl)nc2ncnn2c1N1CCCCCC1 [No 7]
94%: P4: inhibition of the growth of the fungal threads (Lentinus tigrinus (P4))
100%: P1: inhibition of the growth of the fungal threads [1] | P2: inhibition of the growth of the fungal threads (Coniophora puteana (P2)) | P6: inhibition of the growth of the fungal threads [2] | P5: inhibition of the growth of the fungal threads (Coriolus versicolor (P5))

Fc1cccc(F)c1-c1c(Cl)nc2ncnn2c1N1CCCCCC1 [No 8]
100%: P1: inhibition of the growth of the fungal threads [1] | P3: inhibition of the growth of the fungal threads (Poria placenta (P3)) | P2: inhibition of the growth of the fungal threads (Coniophora puteana (P2)) | P6: inhibition of the growth of the fungal threads [2] | P4: inhibition of the growth of the fungal threads (Lentinus tigrinus (P4)) | P5: inhibition of the growth of the fungal threads (Coriolus versicolor (P5))

CC1CCN(c2c(-c3c(F)cc(F)cc3F)c(Cl)nc3ncnn23)CC1 [No 9]
100%: P1: inhibition of the growth of the fungal threads [1] | P3: inhibition of the growth of the fungal threads (Poria placenta (P3)) | P2: inhibition of the growth of the fungal threads (Coniophora puteana (P2)) | P6: inhibition of the growth of the fungal threads [2] | P4: inhibition of the growth of the fungal threads (Lentinus tigrinus (P4)) | P5: inhibition of the growth of the fungal threads (Coriolus versicolor (P5))

CC1CCN(c2c(-c3c(F)cccc3Cl)c(Cl)nc3ncnn23)CC1 [No 10]
100%: P1: inhibition of the growth of the fungal threads [1] | P3: inhibition of the growth of the fungal threads (Poria placenta (P3)) | P2: inhibition of the growth of the fungal threads (Coniophora puteana (P2)) | P6: inhibition of the growth of the fungal threads [2] | P4: inhibition of the growth of the fungal threads (Lentinus tigrinus (P4)) | P5: inhibition of the growth of the fungal threads (Coriolus versicolor (P5))

C[C@H](Nc1c(-c2c(F)cc(F)cc2F)c(Cl)nc2ncnn12)C(F)(F)F [No 11]
100%: P1: inhibition of the growth of the fungal threads [1] | P3: inhibition of the growth of the fungal threads (Poria placenta (P3)) | P2: inhibition of the growth of the fungal threads (Coniophora puteana (P2)) | P6: inhibition of the growth of the fungal threads [2] | P4: inhibition of the growth of the fungal threads (Lentinus tigrinus (P4)) | P5: inhibition of the growth of the fungal threads (Coriolus versicolor (P5))
